Source: ChEMBL document CHEMBL4304802, “Novel promising 4-anilinoquinazoline-based derivatives as multi-target RTKs inhibitors: Design, molecular docking, synthesis, and antitumor activities in vitro and vivo” (Bioorg Med Chem, 2019)

Tests used:
HepG2 [1] = experiment: Antiproliferative activity against human HepG2 cells incubated for 72 hrs by MTT assay; format: functional, cell-based; conditions: HepG2, 72 h
SH-SY5Y = experiment: Antiproliferative activity against human SH-SY5Y cells incubated for 72 hrs by MTT assay; format: functional, cell-based
A549 = experiment: Antiproliferative activity against human A549 cells incubated for 72 hrs by MTT assay; format: functional, cell-based; conditions: A549, 72 h
MCF7 = experiment: Antiproliferative activity against human MCF7 cells incubated for 72 hrs by MTT assay; format: functional, cell-based; conditions: MCF7, 72 h
DU-145 = experiment: Antiproliferative activity against human DU145 cells incubated for 72 hrs by MTT assay; format: functional, cell-based; conditions: DU-145, 72 h
HepG2 [2] = experiment: Antitumor activity against human HepG2 cells xenografted in nude mouse assessed as inhibition of tumor at 40 mg/kg administrated daily for 30 days post implantation by vernier caliper analysis relative to control; format: functional; conditions: HepG2, 720 h
[3] = Toxicity in nude mouse xenografted with human HepG2 cells assessed as change in body weight at 20 mg/kg administrated daily for 50 days post implantation; format: organism-based; conditions: in vivo, 1200 h
[4] = Toxicity in nude mouse xenografted with human HepG2 cells assessed as change in body weight at 40 mg/kg administrated daily for 50 days post implantation; format: organism-based; conditions: in vivo, 1200 h
[5] = Cytotoxicity against human CCC-HPF1 cells assessed as decrease in cell viability incubated for 72 hrs by MTT assay; format: cell-based; conditions: CCC-HPF-1, 72 h

| SMILES | IC50 (HepG2 [1]) | IC50 (SH-SY5Y) | IC50 (A549) | IC50 (MCF7) | IC50 (DU-145) | inhibition in vivo at 40 mg/kg (HepG2 [2]) | Activity [3] | Activity [4] | IC50 [5] |
| --- | --- | --- | --- | --- | --- | --- | --- | --- | --- |
| CNC(=O)c1cc(Oc2ccc(NC(=O)Nc3ccc(Cl)c(C(F)(F)F)c3)cc2)ccn1 [SORAFENIB] | 7.84 µM | > 100 µM | 25.7 µM | 38.2 µM | 83.7 µM | 100% | Non-Toxic | Toxic | – |
| c1ccc(COc2ccccc2Nc2ncnc3cc4c(cc23)OCCOCCO4)cc1 | > 100 µM | 93.7 µM | > 100 µM | > 100 µM | > 100 µM | – | – | – | – |
| c1ccc(COc2cccc(Nc3ncnc4cc5c(cc34)OCCOCCO5)c2)cc1 | > 100 µM | 68.4 µM | 7.59 µM | 40.9 µM | > 100 µM | – | – | – | > 100 µM |
| c1ccc(COc2ccccc2Nc2ncnc3cc4c(cc23)OCCOCCOCCO4)cc1 | 37.3 µM | 98.4 µM | 6.94 µM | 63.3 µM | 13.9 µM | – | – | – | > 100 µM |
| c1ccc(COc2ccccc2Nc2ncnc3cc4c(cc23)OCCOCCOCCOCCO4)cc1 | 29.2 µM | 24 µM | 48.5 µM | > 100 µM | > 100 µM | – | – | – | – |

Second part, led by results:

| IC50 (HepG2 [1]) | IC50 (SH-SY5Y) | IC50 (A549) | IC50 (MCF7) | IC50 (DU-145) | SMILES | inhibition in vivo at 40 mg/kg (HepG2 [2]) | Activity [3] | Activity [4] | IC50 [5] |
| --- | --- | --- | --- | --- | --- | --- | --- | --- | --- |
| > 100 µM | 22.8 µM | > 100 µM | > 100 µM | > 100 µM | c1ccc(COc2cccc(Nc3ncnc4cc5c(cc34)OCCOCCOCCO5)c2)cc1 | – | – | – | – |
| 5.7 µM | 8.56 µM | 8.52 µM | 8.48 µM | 26.9 µM | FC(F)(F)c1ccc(COc2cccc(Nc3ncnc4cc5c(cc34)OCCOCCOCCOCCO5)c2)cc1 | – | – | – | 45.2 µM |
| > 100 µM | > 100 µM | > 100 µM | > 100 µM | > 100 µM | O=[N+]([O-])c1ccc(COc2ccc(Nc3ncnc4cc5c(cc34)OCCOCCOCCOCCO5)cc2)cc1 | – | – | – | – |
| 34 µM | 20 µM | 24.9 µM | 17.6 µM | 2.76 µM | FC(F)(F)c1ccc(COc2cccc(Nc3ncnc4cc5c(cc34)OCCOCCOCCO5)c2)cc1 | – | – | – | 33.3 µM |
| 11.9 µM | 5.25 µM | 29.5 µM | 12 µM | 8.8 µM | c1ccc(COc2ccc(Nc3ncnc4cc5c(cc34)OCCOCCOCCOCCO5)cc2)cc1 | – | – | – | 33.7 µM |
| > 100 µM | > 100 µM | 30.7 µM | 28.5 µM | > 100 µM | FC(F)(F)c1ccc(COc2ccc(Nc3ncnc4cc5c(cc34)OCCOCCOCCO5)cc2)cc1 | – | – | – | – |
| > 100 µM | > 100 µM | > 100 µM | > 100 µM | > 100 µM | FC(F)(F)c1ccc(COc2ccccc2Nc2ncnc3cc4c(cc23)OCCOCCOCCO4)cc1 | – | – | – | – |
